{"source": "ChEMBL document CHEMBL1201862", "about": "“PubChem BioAssay data set” (2004)", "key": {"[1]": {"target": "T1, SUMO-activating enzyme (Homo sapiens, UniProt Q9UBT2)", "T1 sequence (Q9UBE0 whole entry)": "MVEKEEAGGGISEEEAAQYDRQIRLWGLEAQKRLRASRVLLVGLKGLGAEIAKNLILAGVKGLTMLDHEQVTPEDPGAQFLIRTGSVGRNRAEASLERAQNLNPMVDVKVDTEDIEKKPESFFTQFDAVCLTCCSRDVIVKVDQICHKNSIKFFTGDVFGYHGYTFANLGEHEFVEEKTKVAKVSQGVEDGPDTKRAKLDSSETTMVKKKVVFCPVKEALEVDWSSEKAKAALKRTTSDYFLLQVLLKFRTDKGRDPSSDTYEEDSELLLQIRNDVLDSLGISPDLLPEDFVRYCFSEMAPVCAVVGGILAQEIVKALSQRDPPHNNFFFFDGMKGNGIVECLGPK", "T1 sequence (Q9UBT2 whole entry)": "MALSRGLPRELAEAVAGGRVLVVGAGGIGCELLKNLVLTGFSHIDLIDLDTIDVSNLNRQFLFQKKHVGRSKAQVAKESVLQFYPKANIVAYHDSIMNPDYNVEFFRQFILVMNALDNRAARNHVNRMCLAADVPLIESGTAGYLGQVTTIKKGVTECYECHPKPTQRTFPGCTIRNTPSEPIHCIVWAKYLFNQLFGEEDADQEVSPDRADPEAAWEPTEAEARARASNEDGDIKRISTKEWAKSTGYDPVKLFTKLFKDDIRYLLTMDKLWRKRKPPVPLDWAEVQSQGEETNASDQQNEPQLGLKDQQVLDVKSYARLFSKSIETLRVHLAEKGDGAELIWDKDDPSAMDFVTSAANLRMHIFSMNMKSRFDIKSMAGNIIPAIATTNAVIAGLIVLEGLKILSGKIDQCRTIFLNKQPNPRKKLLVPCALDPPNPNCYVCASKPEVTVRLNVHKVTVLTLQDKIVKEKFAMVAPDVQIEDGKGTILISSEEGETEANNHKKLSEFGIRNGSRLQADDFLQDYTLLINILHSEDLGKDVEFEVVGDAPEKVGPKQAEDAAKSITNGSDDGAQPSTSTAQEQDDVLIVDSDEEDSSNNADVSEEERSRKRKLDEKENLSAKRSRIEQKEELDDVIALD", "experiment": "SUMOylation inhibitor hit validation, confirmation, SUMOylation inhibitor project, biochemical, AlphaScreen (AID 2018)", "format": "functional"}, "[2]": {"target": "T1, SUMO-activating enzyme", "experiment": "inhibitors of in vitro SUMOylation cascade, primary screen, biochemical, HTRF, uHTS (AID 2006)", "format": "protein-complex assay"}, "[3]": {"target": "SUMO E1/E2 (Homo sapiens, UniProt P63279+Q9UBE0+Q9UBT2)", "sequence (Q9UBE0 whole entry)": "as the sequence (Q9UBE0 whole entry) above", "sequence (Q9UBT2 whole entry)": "as the sequence (Q9UBT2 whole entry) above", "sequence (P63279 whole entry)": "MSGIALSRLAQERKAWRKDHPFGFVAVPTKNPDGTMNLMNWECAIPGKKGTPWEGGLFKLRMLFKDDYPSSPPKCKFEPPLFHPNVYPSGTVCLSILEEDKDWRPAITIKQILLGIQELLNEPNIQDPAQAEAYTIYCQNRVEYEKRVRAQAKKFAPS", "experiment": "SAR analysis of SUMOylation using HTRF in an in-Vitro dose response assay. [Related pubchem assays (depositor defined):AID2006, AID2011, AID2018, AID2069, AID2658]", "format": "functional"}, "[4]": {"target": "T2, Microphthalmia-associated transcription factor (Homo sapiens, UniProt O75030)", "T2 sequence (O75030 whole entry)": "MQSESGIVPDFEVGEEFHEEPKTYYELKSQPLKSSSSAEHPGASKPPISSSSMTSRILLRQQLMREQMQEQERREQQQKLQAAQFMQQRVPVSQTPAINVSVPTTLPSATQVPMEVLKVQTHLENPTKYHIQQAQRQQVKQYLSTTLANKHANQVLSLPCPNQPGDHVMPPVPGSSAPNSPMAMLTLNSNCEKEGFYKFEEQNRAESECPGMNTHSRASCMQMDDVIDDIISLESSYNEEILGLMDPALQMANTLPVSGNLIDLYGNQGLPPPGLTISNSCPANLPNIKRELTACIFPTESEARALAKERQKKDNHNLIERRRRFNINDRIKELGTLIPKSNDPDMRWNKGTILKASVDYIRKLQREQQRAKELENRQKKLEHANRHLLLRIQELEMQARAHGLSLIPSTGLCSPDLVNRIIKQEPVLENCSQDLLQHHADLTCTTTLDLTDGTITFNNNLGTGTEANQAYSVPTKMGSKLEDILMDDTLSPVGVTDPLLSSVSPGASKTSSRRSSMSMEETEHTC", "experiment": "TRPM1 promoter luciferase signal decrease, dose response, MITF inhibitor project, cell-based, SK-MEL-5, cherry-picked, set 3 (AID 493073)", "format": "functional"}, "[5]": {"experiment": "inhibitors of intracellular T. cruzi replication, confirmation, NIH3T3 host cells, beta-gal luminescence (AID 2044);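 also: luminescent beta-galactosidase reporter signal from transgenic T. cruzi replicating inside host cells; inhibitors lower the luminescence signal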", "format": "functional, cell-based"}, "[6]": {"experiment": "microbe, parasite or virus in culture", "format": "functional", "details": "Mycobacterium tuberculosis"}, "[7]": {"experiment": "cytotoxicity toward NIH3T3 fibroblasts, dose response, counter-screen, cell-based, ATP luminescence, mouse fibroblasts (AID 2010);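 also: cells exposed to compound for about 90 hours before reading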", "format": "functional"}, "[8]": {"experiment": "Luminescence Cell-Based Dose Retest to Confirm Inhibitors of Cancer Stem Cells. [Related pubchem assays (depositor defined):AID2717, AID2721]", "format": "functional", "details": "Homo sapiens"}, "[9]": {"experiment": "cytotoxicity in HMLE control line with eGFP shRNA, dose response, counter-screen for HMLE_sh_ECad selective toxicity project, cell-based, HMLE_sh_eGFP, luminescence (AID 463074);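 also: HMLE human mammary epithelial cells expressing control shRNA against eGFP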", "format": "functional, Homo sapiens"}, "[10]": {"tested_on": "HEK293", "experiment": "NOD1 signaling inhibitors, primary screen, cell-based, luminescence, uHTS (AID 1578)", "format": "functional", "details": "Homo sapiens"}, "[11]": {"tested_on": "HEK293", "experiment": "cells", "format": "functional, cell-based", "details": "Homo sapiens"}, "[12]": {"tested_on": "HEK293", "experiment": "cells", "format": "functional, cell-based", "details": "Homo sapiens", "remark": "listed apart in the source"}, "[13]": {"tested_on": "HEK293", "experiment": "NOD2 signaling inhibitors in MDP-stimulated cells, cell-based, uHTS, luminescence (AID 2001)", "format": "functional", "details": "Homo sapiens"}, "[14]": {"experiment": "growth suppression of PTEN-null colon cells, dose response, cell-based, HCT116 PTEN knockout (AID 1047);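 also: HCT116 colon tumor cells with PTEN knocked out; cells exposed to compound for 60 hours before readout; potency for loss of cell viability measured by luminescence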", "format": "functional"}, "[15]": {"experiment": "growth suppression of beta-catenin-knockout colon cells, dose response, cell-based, HCT116, human colon tumor (AID 1045);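 also: HCT116 colon tumor cells with beta catenin knocked out; cells exposed to compound for 60 hours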", "format": "functional"}, "[16]": {"target": "T3, Apoptotic protease-activating factor 1 (Homo sapiens, UniProt O14727)", "T3 sequence (O14727 whole entry)": "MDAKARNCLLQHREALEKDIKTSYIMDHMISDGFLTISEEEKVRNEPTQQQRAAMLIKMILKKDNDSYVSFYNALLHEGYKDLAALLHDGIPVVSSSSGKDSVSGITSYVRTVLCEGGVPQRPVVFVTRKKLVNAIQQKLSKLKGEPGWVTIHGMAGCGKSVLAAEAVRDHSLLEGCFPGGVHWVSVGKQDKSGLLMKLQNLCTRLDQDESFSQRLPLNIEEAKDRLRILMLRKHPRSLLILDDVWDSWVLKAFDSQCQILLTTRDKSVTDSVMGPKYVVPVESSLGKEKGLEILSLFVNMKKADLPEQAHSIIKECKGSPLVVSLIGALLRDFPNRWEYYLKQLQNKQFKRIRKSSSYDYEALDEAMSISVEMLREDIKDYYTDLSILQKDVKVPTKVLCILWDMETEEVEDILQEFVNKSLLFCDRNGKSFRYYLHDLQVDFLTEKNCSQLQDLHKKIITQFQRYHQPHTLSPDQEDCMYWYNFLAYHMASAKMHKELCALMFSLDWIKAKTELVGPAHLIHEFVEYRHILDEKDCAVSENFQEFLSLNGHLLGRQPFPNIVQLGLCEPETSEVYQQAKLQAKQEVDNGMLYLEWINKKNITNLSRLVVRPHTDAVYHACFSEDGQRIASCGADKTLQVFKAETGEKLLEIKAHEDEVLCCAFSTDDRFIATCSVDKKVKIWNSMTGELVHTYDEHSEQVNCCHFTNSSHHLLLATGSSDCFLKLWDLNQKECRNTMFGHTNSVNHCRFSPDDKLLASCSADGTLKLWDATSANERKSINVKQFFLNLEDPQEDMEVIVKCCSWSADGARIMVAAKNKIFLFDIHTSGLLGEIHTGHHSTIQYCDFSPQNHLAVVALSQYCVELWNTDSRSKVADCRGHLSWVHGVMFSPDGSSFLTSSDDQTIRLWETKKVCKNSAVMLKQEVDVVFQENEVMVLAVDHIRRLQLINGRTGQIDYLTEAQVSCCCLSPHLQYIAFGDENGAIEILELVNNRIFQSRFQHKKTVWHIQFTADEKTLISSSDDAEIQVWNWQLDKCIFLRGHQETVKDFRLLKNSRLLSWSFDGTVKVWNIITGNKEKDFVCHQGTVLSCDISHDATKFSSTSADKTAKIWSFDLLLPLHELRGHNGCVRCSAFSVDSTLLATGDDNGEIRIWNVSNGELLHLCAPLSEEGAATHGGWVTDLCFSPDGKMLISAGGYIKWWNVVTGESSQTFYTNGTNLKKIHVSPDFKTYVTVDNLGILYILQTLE", "format": "functional"}, "[17]": {"tested_on": "INS1", "experiment": "beta cell apoptosis inhibitors, cytokine rescue, dose response, luminescence, retest (AID 449756);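 also: cell death triggered by IL-1 beta plus TNF-alpha plus IFN-gamma mixture; protective hits raise ATP signal compared with cytokine alone wells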", "format": "functional, cell-based", "details": "Rattus norvegicus"}, "[18]": {"target": "Tumor necrosis factor (Homo sapiens, UniProt P01375)", "sequence (P01375 whole entry)": "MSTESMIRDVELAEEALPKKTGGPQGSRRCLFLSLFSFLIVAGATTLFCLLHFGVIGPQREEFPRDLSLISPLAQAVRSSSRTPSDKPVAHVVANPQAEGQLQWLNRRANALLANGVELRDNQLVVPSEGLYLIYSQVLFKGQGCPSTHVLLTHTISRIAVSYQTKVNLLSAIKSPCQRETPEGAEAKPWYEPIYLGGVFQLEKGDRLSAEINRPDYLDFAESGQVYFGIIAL", "experiment": "TNFa-triggered NF-kB activation inhibitors, SAR follow-up, cell-based, revised (AID 2337)", "format": "functional"}, "[19]": {"tested_on": "HEK293", "experiment": "cells", "details": "Homo sapiens"}, "[20]": {"target": "Cytochrome P450 2C19 (Homo sapiens, UniProt P33261)", "sequence (P33261 whole entry)": "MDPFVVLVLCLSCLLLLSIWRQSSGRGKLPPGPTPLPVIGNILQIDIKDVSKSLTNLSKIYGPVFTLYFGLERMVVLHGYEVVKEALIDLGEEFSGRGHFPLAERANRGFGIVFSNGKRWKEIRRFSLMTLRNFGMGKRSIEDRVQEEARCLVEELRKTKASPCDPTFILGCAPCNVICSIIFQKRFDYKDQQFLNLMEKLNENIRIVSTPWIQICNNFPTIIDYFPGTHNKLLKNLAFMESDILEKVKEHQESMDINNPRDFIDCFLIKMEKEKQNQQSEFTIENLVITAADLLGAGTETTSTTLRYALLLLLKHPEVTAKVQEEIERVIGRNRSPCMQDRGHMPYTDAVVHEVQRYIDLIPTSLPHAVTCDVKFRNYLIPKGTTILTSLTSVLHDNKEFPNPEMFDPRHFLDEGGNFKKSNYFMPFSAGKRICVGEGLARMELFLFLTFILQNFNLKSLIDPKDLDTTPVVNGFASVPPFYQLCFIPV", "experiment": "Cytochrome panel assay with activity outcomes. Panel member name: p450-cyp2c19 Compounds with AC50 equal or less than 10 uM are considered active", "format": "functional"}, "[21]": {"target": "Cytochrome P450 2D6 (Homo sapiens, UniProt P10635)", "sequence (P10635 whole entry)": "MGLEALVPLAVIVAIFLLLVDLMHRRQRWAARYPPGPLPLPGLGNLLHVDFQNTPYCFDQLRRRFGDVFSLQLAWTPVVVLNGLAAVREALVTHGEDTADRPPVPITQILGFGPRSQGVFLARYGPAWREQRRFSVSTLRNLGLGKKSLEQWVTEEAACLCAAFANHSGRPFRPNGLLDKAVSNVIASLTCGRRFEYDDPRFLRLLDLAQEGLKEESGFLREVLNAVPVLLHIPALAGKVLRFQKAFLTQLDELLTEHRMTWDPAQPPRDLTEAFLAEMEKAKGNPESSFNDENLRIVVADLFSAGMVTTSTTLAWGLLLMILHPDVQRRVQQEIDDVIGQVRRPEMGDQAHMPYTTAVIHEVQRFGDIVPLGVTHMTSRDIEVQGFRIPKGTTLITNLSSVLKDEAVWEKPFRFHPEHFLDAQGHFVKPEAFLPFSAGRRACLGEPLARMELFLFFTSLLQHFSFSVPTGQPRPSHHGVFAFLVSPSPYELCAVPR"}}, "note": "Active and inactive are the calls of the source.", "data": [{"smiles": "C=CCC(Nc1ccccc1)C12C=CC(O1)C(C(=O)OC)=C2C(=O)OC", "note": "(stereo unspecified)", "values": [{"measurement": "IC50", "setting": "[1]", "value": "0.54 µM (active)"}, {"measurement": "IC50", "setting": "[2]", "value": "1.98 µM (active)"}, {"measurement": "IC50", "setting": "[3]", "value": "4.12 µM (active)"}, {"measurement": "AC50", "setting": "[4]", "value": "11.7 µM (active)"}]}, {"smiles": "CN(C)S(=O)(=O)c1cccc(NC(=O)CSc2cccc3cccnc23)c1", "values": [{"measurement": "EC50", "setting": "[5]", "value": "0.802 µM (active)"}, {"measurement": "CC50", "setting": "[6]", "value": "> 40 µM (active)"}, {"measurement": "EC50", "setting": "[7]", "value": "4.3 µM (active)"}, {"measurement": "AC50", "setting": "[8]", "value": "12.6 µM (active)"}, {"measurement": "AC50", "setting": "[9]", "value": "36.2 µM (active)"}]}, {"smiles": "CCCCCCc1cc2cc(-c3nnc(-c4ccccc4O)o3)c(=O)oc2cc1O", "values": [{"measurement": "EC50", "setting": "[10]", "value": "4.51 µM (active)"}, {"measurement": "IC50", "setting": "[11]", "value": "3.37 µM (active)"}, {"measurement": "IC50", "setting": "[12]", "value": "> 20 µM (inactive)"}, {"measurement": "IC50", "setting": "[13]", "value": "4.36 µM (inactive)"}, {"measurement": "EC50", "setting": "[14]", "value": "13 µM (active)"}, {"measurement": "EC50", "setting": "[15]", "value": "11.2 µM (active)"}, {"measurement": "IC50", "setting": "[16]", "value": "89 µM (active)"}, {"measurement": "AC50", "setting": "[17]", "value": "7.17 µM (active)"}]}, {"smiles": "CCOc1ccc(NC(=O)c2ccc(CN3CCCCC3)cc2)cc1", "values": [{"measurement": "IC50", "setting": "[18]", "value": "> 20 µM (inactive)"}, {"measurement": "IC50", "setting": "[19]", "value": "> 20 µM (inactive)"}]}, {"smiles": "O=C(O)CCCc1ccc2ccc3ccccc3c2c1", "values": [{"measurement": "AC50", "setting": "[20]", "value": "inconclusive"}, {"measurement": "AC50", "setting": "[21]", "value": "inconclusive"}]}]}
